According to article PMC5970127, “In vivo evaluation of two tissue transglutaminase PET tracers in an orthotopic tumour xenograft model” (EJNMMI Research, 2018):
Values joined by “and” are separate entries in the source; they are usually repeats but may differ in a detail not shown here. Equal values may be shown once. Read-outs that look alike come from different tables or passages of the source.

What was measured:
[1] = test system: TG2; set-up: method as in PMID 24152195; conditions: cited from earlier work
[2] = target: TG2; set-up: method as in PMID 17149878; conditions: cited from earlier work
[3] = test system: TG2; set-up: method as in PMID 27067043, PMID 27837727; conditions: TG2 inhibition; cited from earlier work
[4] = cited from earlier work; for Intact (%) / Non-polar (%) / Polar (%): rat plasma
[5] = test system: MDA-MB-231 tumour; assay: Dynamic PET imaging in orthotopic MDA-MB-231 tumour xenograft model; format: in vivo, SCID mice
Description: Severe combined immunodeficient (SCID) female mice (6–8 weeks, 20 to 25 g, Charles River, Wilmington, MA, USA) were housed in sterile cages under standard conditions (24 °C, 60% relative humidity, 12-h light/dark cycles) and provided with water and food ad libitum. MDA-MB-231 cells (1 × 10^6) were injected orthotopically in the fat pad of the second thoracic mammary glands (bilateral). Tumour dimensions were measured using a Vernier calliper, and tumour volume was calculated using the formula (x^2 y)/2 (x and y being the width and length, respectively) for an ellipsoid. At 8 weeks after MDA-MB-231 cell injection, tumours reached the target size of 200 mm^3. This study was performed according to national regulations and was approved by the Animal Experimentation Ethics Committee of the VU University Medical Center.
Dynamic PET imaging was performed using dedicated small animal NanoPET/CT and NanoPET/MR scanners (Mediso Ltd., Hungary, Budapest) with identical PET components. Mice (n = 4 per group) were anaesthetized with 4 and 2% isoflurane in 1 L · min^−1 oxygen for induction and maintenance, respectively. Mice were positioned on the scanner bed, and the respiratory rate was monitored for the duration of the scan, adjusting anaesthesia when required. A dynamic PET scan was acquired immediately after intravenous (i.v.) administration (tail vein) of 5 MBq [^11C]1 or [^18F]2. For blocking experiments, mice were injected subcutaneously with ERW1041E (50 mg · kg^−1) dissolved in 20% dimethylsulfoxide in 0.9% saline, 30 min prior to the tracer injection. An additional blocking experiment was performed by co-administration of compound 2 (50 μg, 75 nmol) and [^18F]2, which corresponded with a molar activity of 0.07 GBq · μmol^−1. PET scans were acquired in list mode and rebinned into the following frame sequence: 4 × 5, 4 × 10, 2 × 30, 3 × 60, 2 × 300, 1 × 600, 1 × 900 and 1 × 1200 s. In addition, a static [^18F]2-fluoro-2-deoxy-D-glucose ([^18F]FDG) scan was acquired for 30 min immediately after [^18F]FDG administration (10 MBq, tail vein). At least a 24-h time interval between [^18F]FDG scans and [^11C]1 or [^18F]2 scans was maintained. Reconstruction was performed with a fully 3-dimensional (3D) reconstruction algorithm using four iterations and six subsets, resulting in an isotropic 0.4-mm voxel dimension. Images were analysed using the freely available AMIDE-software version 1.0.4 (retrieved from https://sourceforge.net/projects/amide/files/amide/1.0.4). Regions of interest (ROIs) were drawn around the tumour tissue and leg muscle. Results are expressed as percentage injected dose per gram (%ID/g). Error bars indicate standard deviation. After PET scanning experiments, animals were sacrificed by cervical dislocation, tumours were isolated, and stored at − 80 °C until further use.

[6] = Plasma metabolite analysis after i.v. administration in SCID mice; format: in vivo; conditions: mouse plasma
Description: Healthy female SCID mice (20–25 g, Harlan, Horst, The Netherlands) were injected in the tail vein with [^11C]1 or [^18F]2 (20 MBq) under isoflurane anaesthesia (2% in O2 at 1 L · min^−1). Mice were sacrificed at 15 and 45 min post injection (n = 3 for each time-point) by cervical dislocation. Blood (~ 0.5–1 mL) was withdrawn by heart puncture, collected in a heparin-coated tube and centrifuged at 5000 RPM to separate plasma from blood cells. Solid phase extraction (SPE) cartridges (tC18, Waters, Milford, MA, USA) were preconditioned by washing with methanol (MeOH, 6 mL) and H2O (two times 6 mL). Plasma (~ 0.2 mL) was mixed with 0.15 M HCl (0.2 mL) and loaded on the tC18 cartridge. The polar fraction was obtained by elution of the cartridge with H2O (3 mL), the non-polar fraction by subsequent elution with MeOH (1.5 mL) and H2O (0.5 mL). Both fractions were counted for radioactivity in a gamma counter. The percentage of intact tracer in the non-polar fraction was determined by online and offline HPLC analysis (Gemini C18 column (5 μm, 10 mm × 250 mm, Phenomenex, Torrance, CA, USA) with eluent MeCN (A) and 0.1% TFA acid in H2O (B) as eluent according to the following schemes; For [^11C]1: 0 min, 70% B at 0.25 mL · min^−1; 0.5 min, 70% B at 3.5 mL · min^−1; 9.0 min, 10% B at 3.5 mL · min^−1; 12.0 min, 10% B at 3.5 mL · min^−1; 12.5 min, 70% B at 3.5 mL · min^−1; 14.5 min, 70% B at 3.5 mL · min^−1 and 15 min, 70% B at 0.25 mL · min^−1 or for [^18F]2: 0 min, 80% B at 0.25 mL · min^−1; 0.5 min, 80% B at 3 mL · min^−1; 6.0 min, 30% B at 3 mL · min^−1; 12.0 min, 30% B at 3 mL · min^−1; 12.5 min, 80% B at 3.0 mL · min^−1; 14.5 min, 80% B at 3.0 mL · min^−1; 15.0 min, 80% B at 0.25 mL · min^−1 (Rt = 11.5 min). Offline HPLC analysis was performed when the online HPLC analysis yielded a low signal to noise ratio. For offline analysis, HPLC fractions (30 s per fraction) were collected and counted for radioactivity (WIZARD 2480 Compugamma, PerkinElmer, Waltham, MA, USA). The counting results were plotted to generate the corresponding HPLC chromatograms. Data were expressed as percentage of intact tracer, polar metabolites, and non-polar metabolites ± standard deviation.
To healthy SCID mice (n = 2) 10 MBq [^18F]2 diluted with 50 μg (2.5 mg · kg^−1) of unlabelled 2 was administered, corresponding to a molar activity of 0.14 GBq · μmol^−1. At 30 min post injection, animals were sacrificed under isoflurane anaesthesia (2% in O2 at 1 L · min^−1) by cervical dislocation. Blood (~ 1 mL) was collected by heart puncture. Blood plasma was separated using a SPE procedure as described in the “Metabolite analysis” section (vide supra). The non-polar fraction was analysed by HPLC and Liquid chromatography–tandem mass spectrometry (LC-MS/MS) in multiple reaction monitoring (MRM) mode. […]

[7] = test system: MDA-MB-231 tumour sections; set-up: method as in PMID 27067043, PMID 27837727; conditions: cited from earlier work
[8] = test system: activated FXIII; set-up: method as in PMID 27067043, PMID 27837727; conditions: cited from earlier work
[9] = 15 min after i.v., % of total blood plasma activity ± SD
[10] = animals sacrificed at 60 min post injection (listed under 45 min)

Row | Structure (SMILES) | IC50 [3] [nM] | Intact (%) ([4]; 15 min after i.v.) | Non-polar (%) ([4]; 15 min after i.v.) | Polar (%) ([4]; 15 min after i.v.) | Intact (%) [6, 9] [%] | Intact (%) ([6]; 45 min after i.v.) | Binding to MDA-MB-231 tumour sections (in vitro autoradiography) [7] | Affinity for activated FXIII [8] | other results
1 | O=C(NC[C@@H]1CC(Br)=NO1)[C@@H]1CCCN1C(=O)OCc1cnc2ccccc2c1 [ERW1041E, Quinolin-3-ylmethyl (S)-2-((((S)-3-bromo-4,5-dihydroisoxazol-5-yl)methyl)carbamoyl)pyrrolidine-1-carboxylate] |  |  |  |  |  |  |  |  | Inhibition of TG2 activity in mouse model of pulmonary hypertension ([1]; 50 mg/kg): inhibition of TG2 activity to background levels; Reduction of TG2 activity in pulmonary hypertension model ([1]; 30 min after administration): factor of four; Time of maximum TG2 inhibitory effect after administration [1]: 30 min; Ki [2]: 11000 nM
2 | C=C[11C](=O)NCCCC[C@H](NC(=O)Cc1ccccc1)C(=O)N1CCN(c2cccc(C)n2)CC1 [[^11C]1, (S)-N-(6-(4-(6-methylpyridin-2-yl)piperazin-1-yl)-6-oxo-5-(2-phenylacetamido)hexyl)[^11C]acrylamide] | 53 | 65 ± 7 | 13 ± 4 | 21 ± 3 | 56 ± 14 | 24% and 24 ± 1% | specific and selective binding | no affinity | Intact (%) ([4]; 45 min after i.v.): 29 ± 11%; Non-polar (%) ([4]; 45 min after i.v.): 6 ± 3%; Polar (%) ([4]; 45 min after i.v.): 65 ± 12%; Effect of ERW1041E pretreatment on tumour activity ([5]; ERW1041E 50 mg/kg s.c. 30 min prior to tracer): significant increase in tumour activity; Time of peak tumour uptake after injection ([5]; baseline): 5 to 10 min; Tumour uptake ([5]; baseline, 40–60 min p.i., 5 MBq i.v.): approx. 0.5 %ID/g
3 | COC(=O)[C@H](CC(C)C)NC(=O)[C@@H]1CCCN1C(=O)[C@@H](NC(=O)[C@H](CCC(=O)C=[N+]=[N-])NC(=O)CO/N=C/c1ccc([18F])cc1)C(C)C [[^18F]2, (S)-methyl 2-((S)-1-((7S,10S,E)-7-(4-diazo-3-oxobutyl)-1-(4-[^18F]fluorophenyl)-10-isopropyl-5,8-dioxo-3-oxa-2,6,9-triazaundec-1-en-11-oyl)pyrrolidine-2-carboxamido)-4-methylpentanoate] | 104 | 1 ± 1 | 98 ± 1 | 2 ± 0 | 20 ± 1 | 3 ± 2% | specific and selective binding | no affinity | Metabolism in vivo ([4]; 15 min post injection): completely metabolised; Intact (%) [4, 10]: 0 ± 0 %; Non-polar (%) [4, 10]: 92 ± 3 %; Polar (%) [4, 10]: 8 ± 3 %; Tumour activity after pretreatment with ERW1041E ([5]; ERW1041E 50 mg/kg s.c. 30 min prior to tracer, 40–60 min, p = 0.06 vs baseline): 1.4 %ID/g; Background (muscle, right femur) activity ([5]; baseline, 40–60 min time-frame): 0.8 %ID/g; Tumour activity with co-administered unlabelled 2 ([5]; self-blocking, 2 (50 μg, 75 nmol) co-administered, 40–60 min, p = 0.007): approximately 1.0 %ID/g
4 | CC(C)C[C@H](NC(=O)[C@@H]1CCCN1C(=O)[C@@H](NC(=O)[C@H](CCC(=O)C=[N+]=[N-])NC(=O)CO/N=C/c1ccc([18F])cc1)C(C)C)C(=O)O [[^18F]M1] | 45 |  |  |  |  |  |  |  | 
